Laboratory results: PMC11645267, “Novel pharmacologic inhibition of lysine-specific demethylase 1 as a potential therapeutic for glioblastoma” (Cancer Gene Therapy, 2024)

Tests used:
MAO-B = molecular target: T1, MAO-B (Homo sapiens, UniProt P27338); assay: Enzyme inhibition assay (in vitro peroxidase assay) against MAO-B
T1 sequence (P27338 1-520): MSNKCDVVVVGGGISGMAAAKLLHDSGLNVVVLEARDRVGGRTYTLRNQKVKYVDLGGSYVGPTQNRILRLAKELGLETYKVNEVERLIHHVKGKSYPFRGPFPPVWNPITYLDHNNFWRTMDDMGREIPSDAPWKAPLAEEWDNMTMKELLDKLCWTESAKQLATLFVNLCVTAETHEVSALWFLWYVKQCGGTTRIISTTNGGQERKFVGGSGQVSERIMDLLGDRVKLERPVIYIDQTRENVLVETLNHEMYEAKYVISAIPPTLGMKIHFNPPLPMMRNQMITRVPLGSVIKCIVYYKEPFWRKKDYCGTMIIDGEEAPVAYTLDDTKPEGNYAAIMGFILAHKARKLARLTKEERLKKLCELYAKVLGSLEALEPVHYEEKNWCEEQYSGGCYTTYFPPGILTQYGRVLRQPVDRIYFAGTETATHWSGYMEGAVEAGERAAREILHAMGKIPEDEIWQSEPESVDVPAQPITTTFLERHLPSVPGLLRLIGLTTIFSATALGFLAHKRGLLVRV
Protocol: Enzyme inhibition assays against LSD1, LSD2, MAO-A, and MAO-B were performed as previously described [25]. Technical replicates, n = 3.

F3 = assay: Western blot of global histone modifications; type: cell-based; conditions: F3, 5 μM, 96 h
Protocol: The effects of S2172 on global histone modifications in GSCs were examined using western blot analysis. GSC cells were treated with 5 μM of S2172 since […] of the cells are still viable at this concentration (Fig. 2, Supplementary Fig. S1E). […] Treatment of GSCs with S2172 increased the overall levels of H3K4me2 as well as H3K9me2. However, these changes were not statistically significant (Fig. 2A, B). […]
instructions. For GSC cells, the CellTiter-Glo 3D Viability Assay (Promega, Madison, WI, USA) was used to measure the living cells. All proliferation experiments were repeated […]
The density of bands was quantified using ImageJ software (https://imagej.nih.gov/ij/). […]
When mice were scanned with MRI, mice were anesthetized with isoflurane (3% in air) and placed in MRS 3017 Benchtop MRI Systems (MR Solutions, Guildford, UK). Using MRI images, tumor volumes were obtained by compiling tumor areas from all slices that contained tumors and calculated by ImageJ software (https://imagej.nih.gov/ij/) {Towner, […]
A. Left panel: Western blot analysis of H3K4me1, H3K4me2, H3K4me3, and H3K9me2 after treatment with either DMSO or S2172 5μM for 96 h in normal neural stem cell F3 . […] Right panel: Quantification of signal intensities of the Western blot. […]
C. […] Right panel: Quantification of band signal intensities from the Western blot. […]

## NC1CCC(NC2CC2c2cc(F)cc(F)c2OCc2ccccc2)CC1 (stereo not drawn) [S2172]
MAO-B
  Ki: > 250 µM
MAO-B; in vitro peroxidase assay
  Inhibition of MAO-B (in words): not inhibited
F3
  changes in the levels of H3K4me1, H3K4me2, H3K4me3, and H3K9me2: not significant
